{"source": "patent US20160058743A1", "about": "“METHODS FOR TREATING SENSORIMOTOR IMPAIRMENTS ASSOCIATED WITH CERTAIN TYPES OF STROKE USING AMINOPYRIDINES” (ACORDA THERAPEUTICS, INC., priority 2013, published 2016)", "format_in_all_cases": "in vivo, Sprague Dawley rats", "key": {"[1]": {"system": "rats with middle cerebral artery occlusion (MCAO)", "assay": "Hindlimb placing test after MCAO", "excerpt": "In particular, the MCAO model in Sprague Dawley rats that was utilized in the experiments presented below mimics the conditions in human ischemic stroke. In this model, focal cerebral infarcts were made by permanent occlusion of the proximal right middle cerebral artery (MCA) using a modification of the method of Tamura et al. (No To Shinkei 1986; 38:747-51). Briefly, the temporalis muscle was bisected and reflected through an incision made midway between the eye and the ear canal. The proximal MCA was exposed through a subtemporal craniectomy without removing the zygomatic arch and without transecting the facial nerve.\nIn this experiment, Sprague Dawley rats were anesthetized, subjected to a surgery resulting in middle cerebral artery occlusion (MCAO), treated with and without 4-aminopyridine and behavioral assessments were performed as described below. Treatment was initiated at 4 weeks after stroke.\nDosing and Treatment: Rats were treated in accordance with the dosing schedule shown in Tables 2A, 2B, 3 and FIG. 2, with each Phase being a two week period of time. A solution of 4-AP was used in this experiment. Dosing was started at 4 weeks after ischemic event. 4-aminopyridine was dissolved in water for injection (WFI, Cellgro) and sterile filtered. Final concentrations of 0.315 mg/mL or 1.0 mg/mL of 4-aminopyridine were delivered at 2 mL/kg by gastric gavage, resulting in final doses of 0.63 mg/kg and 2 mg/kg respectively. Vehicle control treatment was WFI delivered at 2 mL/kg by gastric gavage. This study was divided into three treatment phases (1-3) with each randomized cohort of animals receiving a different dose level during each of the treatment phases. Starting on day 30 after MCAO (Day 30, start of phase 1), the animals received gavage dosing of solutions (2 mL/kg) approximately 12 hours apart, for a total of five doses. The same schedule was repeated with different treatment on Day 44 and Day 58 for phase 2 and 3 of the study, respectively. Animals were not treated during the 10 days between phases (washout period).\nTreatment groups: Dosing was started 4 weeks after MCAO surgery. During these 4 weeks, weekly behavioral assessments, as defined below, were performed. Two dose levels of 4-AP plus vehicle control were assessed, with treatment starting at 4 weeks after ischemic event. All dosing was via gastric gavage, volume not to exceed 2 mL/kg. Animals were given the first dose and behavioral assessments were performed starting 60 minutes after dosing. Animals then received the second dose that day at the appropriate time and b.i.d (preferably every 12 hours) thereafter for 2 more days (3 total days of dosing, 5 total doses). One hour after the 5th dose, animals were subjected to behavioral assessments as defined below. Following the final behavioral assessment, drug was withdrawn for 10 or 11 days, behavior was re-assessed, and then animals were re-challenged with a cross-over treatment (Phase 2 of Table 2B) as described in Tables 2A, 2B and 3, followed by the same behavioral testing and dosing regimen. This cross-over was repeated one more time as well (Phase 3 of Table 2B) (see FIG. 2).\nBehavioral test details: Behavioral evaluations were done by evaluators blinded to treatment assignment. Blinded assessments of sensorimotor function were performed just prior to MCAO surgery, 24 hours after MCAO surgery and weekly thereafter until the first phase of dosing using limb placing and body swing behavioral tests. As described above, behavioral assessments were timed exactly with dosing times. Animals were tested one hour after the 1st and 5th doses of each phase (i.e., Days 30 and 32 of the first phase, Days 44 and 46 of the second phase; and Days 58 and 60 of the third phase); animals were also tested during the washout periods on Days 42 and 56. Animals were given the first dose, behavioral assessments were performed starting 60 minutes later, and blood was collected 90 minutes after dosing. […]"}, "[2]": {"system": "rats with middle cerebral artery occlusion (MCAO)", "assay": "Infarct volume measurement (H&E staining)", "details": "% of contralateral hemisphere; for Mean infarct volume (%): Example 2 crossover, Day 63", "experimental": "Euthanasia and post-mortem processing: Infarct Volume analysis. After the last behavioral assessment, rats were anesthetized deeply with ketamine/xylazine (100 mg/kg ketamine, 10 mg/kg xylazine, i.p.) and perfused transcardially with normal saline (with heparin 2 unit/ml) followed by 4% paraformaldehyde or formalin on Day 63. Brains were harvested and processed for histological assessment. A subset of 10 brains per group was processed for infarct volume measurement (H&E staining).\nInfarct measurement: Brains were embedded in paraffin and 5 micron thick coronal sections were cut using a microtome. Sections were stained with hematoxylin and eosin (H&E), using standard methods. Seven coronal sections (+4.7, +2.7, +0.7, −1.3, −3.3, −5.3 and −7.3, compared to bregma respectively) from each brain were photographed by a digital camera, and the infarct area on each slice was determined by NIH Image (Image J) using the “indirect method” (area of the intact contralateral [left] hemisphere−area of intact regions of the ipsilateral [right] hemisphere) to correct for brain edema. Infarct areas were then summed among slices and multiplied by slice thickness (the distance between sections) to give total infarct volume, which was expressed as a percentage of intact contralateral hemispheric volume.\nEuthanasia and post-mortem processing: At day 70 after MCAO, rats were anesthetized as described in Example 2, above.\nInfarct measurement: Infarct measurement was performed as described in Example 2, above."}, "[3]": {"system": "rats with middle cerebral artery occlusion (MCAO)", "assay": "Hindlimb placing test after MCAO", "remark": "listed apart in the source"}}, "note": "Entries after “also recorded” stand apart in the source; their conditions may differ.", "data": [{"smiles": "Nc1ccncc1", "note": "[4-AP, 4-aminopyridine]", "values": [{"measurement": "Effect on hindlimb function (hindlimb placing test)", "setting": "[1]; Example 2, low (0.63 mg/kg) or high (2 mg/kg) dose b.i.d. p.o., started 4 weeks post MCAO, dose-responsive, reversible", "value": "effective to improve hindlimb function; also recorded: significant improvement"}, {"measurement": "Hindlimb Placing Total Score", "setting": "[1]; Group 1, D 32 post-MCAO, High 4-AP 2.0 mg/kg b.i.d. p.o., 1 h after 5th dose, group Mean, N=15, 0=normal, 6=maximally impaired", "value": 0.97}, {"measurement": "Hindlimb Placing Total Score", "setting": "[1]; Group 2 mean, D 58 after MCAO, phase 3, high dose (sequence lvh, b238, inferred)", "value": 0.83}, {"measurement": "Hindlimb Placing Total Score", "setting": "[1]; Group 2 mean, D 60 after MCAO, phase 3, high dose (sequence lvh, b238, inferred)", "value": 0.23}, {"measurement": "Hindlimb Placing Total Score", "setting": "[1]; Group 3 mean, D 44 after MCAO, phase 2", "value": 0.90}, {"measurement": "Hindlimb Placing Total Score", "setting": "[1]; Group 3 mean, D 46 after MCAO, phase 2", "value": 0.30}, {"measurement": "Mean infarct volume (%)", "setting": "[2]; Group 1 (H, L, V)", "value": "45.0 (±1.8) %"}, {"measurement": "Mean infarct volume (%)", "setting": "[2]; Group 2 (L, V, H)", "value": "41.4 (±2.3) %"}, {"measurement": "Mean infarct volume (%)", "setting": "[2]; Group 3 (V, H, L)", "value": "39.0 (±3.3) %"}, {"measurement": "Mean (SE) Infarct Volume (%)", "setting": "[2]; Example 17, 4-AP 0.5, 1 and 2 mg/kg b.i.d. Days 56-65, brains at day 70 after MCAO", "value": "40.0 (2.3) %"}, {"measurement": "Hind limb placing score compared to vehicle", "setting": "[3]; Example 17, 0.5 mg/kg b.i.d. p.o., Day 59 post-MCAO", "value": "improved with the low dose but did not reach significance"}, {"measurement": "Hind limb test compared to vehicle", "setting": "[3]; Example 17, 1 mg/kg b.i.d. p.o., Day 62 post-MCAO, p<0.05", "value": "measureable improvement"}, {"measurement": "Hind limb function compared to vehicle", "setting": "[3]; Example 17, 2 mg/kg b.i.d. p.o., Day 65 post-MCAO, p<0.001", "value": "significant improvements"}]}]}
